Experimental data reported in patent US20240109865A1, “INDAZOLE COMPOUNDS AS KINASE INHIBITORS” (TYRA BIOSCIENCES, INC., priority 2020, published 2024).

How the values were obtained:
Assay in all cases: Kinase assay, binding constants (Kd), kinase-tagged T7 phage, qPCR
FGFR1 = FGFR1 (Homo sapiens (Human), UniProt P11362)
Method: (§1) Kinase-tagged T7 phage strains were prepared in an E. coli host derived from the BL21 strain. E. coli were grown to log-phase and infected with T7 phage and incubated with shaking at 32° C. until lysis. The lysates were centrifuged and filtered to remove cell debris. Streptavidin-coated magnetic beads were treated with biotinylated small molecule ligands for 30 minutes at room temperature to generate affinity resins for kinase assays. The liganded beads were blocked with excess biotin and washed with blocking buffer SeaBlock (Pierce), […], 1 mM DTT to remove unbound ligand and to reduce non-specific binding.
(§2) Test compounds were prepared as 111λ stocks in 10000 DMS0. Kds were determined using an 11-point 3-fold compound dilution series with three DMSO control points. […] The compounds were then diluted directly into the assays such that the final concentration of DMSO was 0.9%. All reactions performed in polypropylene 384-well plate. Each was a final volume of 0.02 ml. […] The beads were then re-suspended in elution buffer (1×PBS, 0.05% Tween […] non-biotinylated affinity ligand) and incubated at room temperature with shaking for 30 minutes. The kinase concentration in the eluates was measured by qPCR.
(§3) Binding constants were calculated with a standard dose-response curve using the Hill equation: […]
(§4) The Hill Slope was set to −1. Curves were fitted using a non-linear least square fit with the Levenberg-Marquardt algorithm.

FGFR2 = FGFR2 (Homo sapiens (Human), UniProt P21802)
Method: as §1, §2, §3, §4

FGFR3 = FGFR3 (Homo sapiens (Human), UniProt P22607)
Method: as §1, §2, §3, §4

FGFR3 (V555M) = FGFR3 (V555M) (Homo sapiens (Human), UniProt P22607, V555M); conditions: V555M mutant
Method: as §1, §2, §3, §4

FGFR4 = FGFR4 (Homo sapiens (Human), UniProt P22455)
Method: as §1, §2, §3, §4

Sequence of FGFR4 (P22455 22-802): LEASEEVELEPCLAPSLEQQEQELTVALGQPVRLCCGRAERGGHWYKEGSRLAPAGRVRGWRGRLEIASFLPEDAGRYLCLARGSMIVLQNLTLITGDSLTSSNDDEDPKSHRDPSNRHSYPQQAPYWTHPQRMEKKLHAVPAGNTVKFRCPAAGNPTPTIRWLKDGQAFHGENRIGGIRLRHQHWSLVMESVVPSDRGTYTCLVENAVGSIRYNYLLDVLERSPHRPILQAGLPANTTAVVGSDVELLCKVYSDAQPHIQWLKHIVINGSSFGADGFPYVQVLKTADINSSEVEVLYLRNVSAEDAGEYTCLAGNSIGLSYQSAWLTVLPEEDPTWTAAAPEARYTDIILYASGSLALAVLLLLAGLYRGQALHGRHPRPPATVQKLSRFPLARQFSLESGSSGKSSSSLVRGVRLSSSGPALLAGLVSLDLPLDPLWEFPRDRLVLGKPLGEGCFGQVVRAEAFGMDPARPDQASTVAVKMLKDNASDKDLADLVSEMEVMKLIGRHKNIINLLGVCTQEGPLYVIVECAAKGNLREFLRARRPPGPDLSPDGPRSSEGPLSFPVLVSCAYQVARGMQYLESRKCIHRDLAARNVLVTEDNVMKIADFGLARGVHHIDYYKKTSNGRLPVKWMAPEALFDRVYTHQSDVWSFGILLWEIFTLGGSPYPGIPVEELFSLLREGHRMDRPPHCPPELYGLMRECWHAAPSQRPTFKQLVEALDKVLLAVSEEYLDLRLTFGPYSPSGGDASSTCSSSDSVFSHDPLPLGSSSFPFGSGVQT
Sequence of FGFR2 (P21802 22-821): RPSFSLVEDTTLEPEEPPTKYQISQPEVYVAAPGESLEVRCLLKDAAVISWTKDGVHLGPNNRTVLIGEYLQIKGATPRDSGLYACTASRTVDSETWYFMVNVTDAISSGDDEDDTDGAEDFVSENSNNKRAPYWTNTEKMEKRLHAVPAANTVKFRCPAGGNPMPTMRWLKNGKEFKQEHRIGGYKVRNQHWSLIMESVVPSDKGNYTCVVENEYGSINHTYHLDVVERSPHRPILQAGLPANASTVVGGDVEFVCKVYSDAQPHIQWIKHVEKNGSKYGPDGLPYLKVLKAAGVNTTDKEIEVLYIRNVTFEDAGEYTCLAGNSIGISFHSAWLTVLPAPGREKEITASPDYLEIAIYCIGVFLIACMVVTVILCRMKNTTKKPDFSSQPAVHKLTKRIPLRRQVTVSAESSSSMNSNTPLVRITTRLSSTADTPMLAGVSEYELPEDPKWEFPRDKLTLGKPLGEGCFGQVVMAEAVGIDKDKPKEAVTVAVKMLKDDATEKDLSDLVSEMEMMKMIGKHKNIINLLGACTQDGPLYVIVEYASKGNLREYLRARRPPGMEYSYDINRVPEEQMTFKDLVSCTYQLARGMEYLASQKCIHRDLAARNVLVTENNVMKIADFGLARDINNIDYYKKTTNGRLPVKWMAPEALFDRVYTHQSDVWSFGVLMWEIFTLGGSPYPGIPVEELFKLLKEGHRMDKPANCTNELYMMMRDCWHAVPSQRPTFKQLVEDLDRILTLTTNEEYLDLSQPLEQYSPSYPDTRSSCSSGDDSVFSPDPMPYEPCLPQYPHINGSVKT
Sequence of FGFR3 (P22607 23-806): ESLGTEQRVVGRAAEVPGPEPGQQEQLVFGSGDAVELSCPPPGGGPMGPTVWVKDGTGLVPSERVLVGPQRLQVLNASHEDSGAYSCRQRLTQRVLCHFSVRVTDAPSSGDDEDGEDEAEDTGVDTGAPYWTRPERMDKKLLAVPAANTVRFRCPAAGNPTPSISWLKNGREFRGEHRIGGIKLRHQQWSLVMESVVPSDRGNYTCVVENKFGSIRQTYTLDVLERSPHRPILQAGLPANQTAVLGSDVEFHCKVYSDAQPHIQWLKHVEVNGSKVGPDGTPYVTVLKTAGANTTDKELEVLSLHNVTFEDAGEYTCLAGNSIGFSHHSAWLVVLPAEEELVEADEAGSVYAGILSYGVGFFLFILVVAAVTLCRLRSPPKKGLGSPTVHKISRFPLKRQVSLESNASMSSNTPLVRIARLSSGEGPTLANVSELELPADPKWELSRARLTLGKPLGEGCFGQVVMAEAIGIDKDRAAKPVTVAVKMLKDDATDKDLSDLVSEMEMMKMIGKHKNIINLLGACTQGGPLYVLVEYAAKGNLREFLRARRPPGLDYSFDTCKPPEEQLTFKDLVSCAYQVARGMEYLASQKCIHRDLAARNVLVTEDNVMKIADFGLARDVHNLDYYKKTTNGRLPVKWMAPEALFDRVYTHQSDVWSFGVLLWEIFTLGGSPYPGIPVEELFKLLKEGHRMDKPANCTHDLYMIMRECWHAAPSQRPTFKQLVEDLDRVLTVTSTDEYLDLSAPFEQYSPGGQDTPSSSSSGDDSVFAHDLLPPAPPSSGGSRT
Sequence of FGFR1 (P11362 22-822): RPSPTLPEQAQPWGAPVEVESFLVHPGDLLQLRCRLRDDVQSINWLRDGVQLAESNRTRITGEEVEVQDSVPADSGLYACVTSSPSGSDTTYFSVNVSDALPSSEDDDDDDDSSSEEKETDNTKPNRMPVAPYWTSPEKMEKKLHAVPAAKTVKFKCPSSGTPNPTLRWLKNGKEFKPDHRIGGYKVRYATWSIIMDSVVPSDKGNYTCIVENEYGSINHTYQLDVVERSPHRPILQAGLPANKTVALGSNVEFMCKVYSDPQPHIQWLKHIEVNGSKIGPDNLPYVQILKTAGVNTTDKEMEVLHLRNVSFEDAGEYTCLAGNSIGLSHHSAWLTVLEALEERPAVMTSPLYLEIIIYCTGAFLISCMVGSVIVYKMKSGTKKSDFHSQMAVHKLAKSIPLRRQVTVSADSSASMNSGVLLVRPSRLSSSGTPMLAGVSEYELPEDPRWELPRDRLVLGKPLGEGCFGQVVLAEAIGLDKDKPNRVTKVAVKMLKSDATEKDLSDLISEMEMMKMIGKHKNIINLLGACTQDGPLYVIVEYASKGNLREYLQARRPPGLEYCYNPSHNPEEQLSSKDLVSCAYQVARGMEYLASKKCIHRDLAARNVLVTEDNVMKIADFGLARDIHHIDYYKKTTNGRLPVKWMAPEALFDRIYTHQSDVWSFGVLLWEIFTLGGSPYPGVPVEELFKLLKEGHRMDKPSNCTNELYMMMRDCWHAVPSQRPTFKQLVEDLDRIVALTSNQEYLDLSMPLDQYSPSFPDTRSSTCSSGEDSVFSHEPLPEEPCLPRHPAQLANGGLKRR
Sequence of FGFR3 (V555M) (P22607 23-806 V555M): as the sequence (P22607 23-806) above, with V533M counted along it

C[C@@H](Oc1ccc2[nH]nc(-c3ccc(N4CC5(C4)CN(S(C)(=O)=O)C5)nc3)c2c1)c1c(Cl)cnnc1Cl [Example 233, (R)-5-(1-(3,5-dichloropyridazin-4-yl)ethoxy)-3-(6-(6-(methylsulfonyl)-2,6-diazaspiro[3.3]heptan-2-yl)pyridin-3-yl)-1H-indazole]
Kd (FGFR1): > 300 nM | Kd (FGFR2): 100 to 300 nM | Kd (FGFR3): 20 to 100 nM | Kd (FGFR3 (V555M)): 20 to 100 nM | Kd (FGFR4): > 300 nM

C[C@@H](Oc1ccc2[nH]nc(-c3cnn(C4CNC4)c3)c2c1)c1c(Cl)cncc1Cl [Example 85, 3-[1-(azetidin-3-yl)pyrazol-4-yl]-5-[(1R)-1-(3,5-dichloro-4-pyridyl)ethoxy]-1H-indazole]
Kd (FGFR1): 1 to 20 nM | Kd (FGFR2): 1 to 20 nM | Kd (FGFR3): 1 to 20 nM | Kd (FGFR3 (V555M)): 1 to 20 nM | Kd (FGFR4): 1 to 20 nM

Cc1ncc(Cl)c([C@@H](C)Oc2cc3c(-c4cnc(N5CC6(C5)CN(S(C)(=O)=O)C6)c(C#N)c4)n[nH]c3cc2F)c1Cl [Example 379, 5-[5-[(1R)-1-(3,5-dichloro-2-methyl-4-pyridyl)ethoxy]-6-fluoro-1H-indazol-3-yl]-2-(2-methylsulfonyl-2,6-diazaspiro[3.3]heptan-6-yl)pyridine-3-carbonitrile]
Kd (FGFR1): 100 to 300 nM | Kd (FGFR2): 100 to 300 nM | Kd (FGFR3): 20 to 100 nM | Kd (FGFR3 (V555M)): 1 to 20 nM | Kd (FGFR4): 1 to 20 nM

C[C@@H](Oc1ccc2[nH]nc(-c3cnc(N4CCCNCC4)nc3)c2c1)c1c(Cl)cncc1Cl [Example 61, 3-[2-(1,4-Diazepan-1-yl)pyrimidin-5-yl]-5-[(1R)-1-(3,5-dichloro-4-pyridyl)ethoxy]-1H-indazole]
Kd (FGFR1): 1 to 20 nM | Kd (FGFR2): 20 to 100 nM | Kd (FGFR3): 1 to 20 nM | Kd (FGFR3 (V555M)): 1 to 20 nM | Kd (FGFR4): 1 to 20 nM

COc1cc2[nH]nc(-c3cnc(N4CCC4)c(C#N)c3)c2cc1O[C@H](C)c1c(Cl)cnnc1Cl [Example 360, (R)-2-(azetidin-1-yl)-5-(5-(1-(3,5-dichloropyridazin-4-yl)ethoxy)-6-methoxy-1H-indazol-3-yl)nicotinonitrile]
Kd (FGFR1): 100 to 300 nM | Kd (FGFR2): 20 to 100 nM | Kd (FGFR3): 20 to 100 nM | Kd (FGFR3 (V555M)): > 300 nM | Kd (FGFR4): 1 to 20 nM

Cc1cnnc(C)c1[C@@H](C)Oc1ccc2[nH]nc(-c3cnc(N4CC[C@@H](O)C4)c(C#N)c3)c2c1 [Example 313, 5-(5-((R)-1-(3,5-dimethylpyridazin-4-yl)ethoxy)-1H-indazol-3-yl)-2-((R)-3-hydroxypyrrolidin-1-yl)nicotinonitrile]
Kd (FGFR1): 100 to 300 nM | Kd (FGFR2): 20 to 100 nM | Kd (FGFR3): 20 to 100 nM | Kd (FGFR3 (V555M)): 1 to 20 nM | Kd (FGFR4): 1 to 20 nM

Cc1cnnc(C)c1[C@@H](C)Oc1ccc2[nH]nc(-c3cnc(N4CCC[C@@H]4CO)c(C#N)c3)c2c1 [Example 335, 5-(5-((R)-1-(3,5-dimethylpyridazin-4-yl)ethoxy)-1H-indazol-3-yl)-2-((R)-2-(hydroxymethyl)pyrrolidin-1-yl)nicotinonitrile]
Kd (FGFR1): 1 to 20 nM | Kd (FGFR2): 20 to 100 nM | Kd (FGFR3): 1 to 20 nM | Kd (FGFR3 (V555M)): 1 to 20 nM | Kd (FGFR4): 1 to 20 nM

C[C@@H](Oc1ccc2[nH]nc(-c3cnc(N4CCC4)c(C#N)c3)c2c1)c1c(Cl)cncc1Cl [Example 309, 2-(azetidin-1-yl)-5-[5-[(1R)-1-(3,5-dichloro-4-pyridyl)ethoxy]-1H-indazol-3-yl]pyridine-3-carbonitrile]
Kd (FGFR1): > 300 nM | Kd (FGFR2): > 300 nM | Kd (FGFR3): 100 to 300 nM | Kd (FGFR3 (V555M)): 20 to 100 nM | Kd (FGFR4): 1 to 20 nM

C[C@@H](Oc1cc2c(-c3ccc(N4CC5(C4)CN(S(C)(=O)=O)C5)nc3)n[nH]c2cc1F)c1c(Cl)cnnc1Cl [Example 262, (R)-5-(1-(3,5-dichloropyridazin-4-yl)ethoxy)-6-fluoro-3-(6-(6-(methylsulfonyl)-2,6-diazaspiro[3.3]heptan-2-yl)pyridin-3-yl)-1H-indazole]
Kd (FGFR1): 1 to 20 nM | Kd (FGFR2): 1 to 20 nM | Kd (FGFR3): 1 to 20 nM | Kd (FGFR3 (V555M)): 1 to 20 nM | Kd (FGFR4): 1 to 20 nM

COc1cc2[nH]nc(-c3ccc(N4CC(O)C4)nc3)c2cc1O[C@H](C)c1c(Cl)cnc(C)c1Cl [Example 208, 1-[5-[5-[(1R)-1-(3,5-dichloro-2-methyl-4-pyridyl)ethoxy]-6-methoxy-1H-indazol-3-yl]-2-pyridyl]azetidin-3-ol]
Kd (FGFR1): 20 to 100 nM | Kd (FGFR2): 1 to 20 nM | Kd (FGFR3): 1 to 20 nM | Kd (FGFR3 (V555M)): 1 to 20 nM | Kd (FGFR4): 1 to 20 nM

C[C@@H](Oc1ccc2[nH]nc(-c3cnn(C4CCN(C5CCC5)CC4)c3)c2c1)c1cc(F)cc(F)c1 [Example 167, 3-[1-(1-cyclobutyl-4-piperidyl)pyrazol-4-yl]-5-[(1R)-1-(3,5-difluorophenyl)ethoxy]-1H-indazole]
Kd (FGFR1): 20 to 100 nM | Kd (FGFR2): 20 to 100 nM | Kd (FGFR3): 20 to 100 nM | Kd (FGFR3 (V555M)): 1 to 20 nM | Kd (FGFR4): > 300 nM

C[C@@H](Oc1ccc2[nH]nc(-c3cnc(N4CC[C@H](O)C4)c(C#N)c3)c2c1)c1c(Cl)cnc(F)c1Cl [Example 288, 5-(5-((R)-1-(3,5-dichloro-2-fluoropyridin-4-yl)ethoxy)-1H-indazol-3-yl)-2-((S)-3-hydroxypyrrolidin-1-yl)nicotinonitrile]
Kd (FGFR1): > 300 nM | Kd (FGFR2): > 300 nM | Kd (FGFR3): 20 to 100 nM | Kd (FGFR3 (V555M)): 20 to 100 nM | Kd (FGFR4): 1 to 20 nM

COc1cc2[nH]nc(-c3cnc(N4CC5(CCCS(=O)(=O)C5)C4)c(C#N)c3)c2cc1O[C@H](C)c1c(Cl)cncc1Cl [Example 346, (R)-5-(5-(1-(3,5-dichloropyridin-4-yl)ethoxy)-6-methoxy-1H-indazol-3-yl)-2-(6,6-dioxido-6-thia-2-azaspiro[3.5]nonan-2-yl)nicotinonitrile]
Kd (FGFR1): 1 to 20 nM | Kd (FGFR2): 1 to 20 nM | Kd (FGFR3): 1 to 20 nM | Kd (FGFR3 (V555M)): 1 to 20 nM | Kd (FGFR4): 1 to 20 nM

C[C@@H](Oc1cc2c(-c3ccc(N4CC5(C4)CN(S(C)(=O)=O)C5)nc3)n[nH]c2cc1Cl)c1c(Cl)cncc1Cl [Example 260, (R)-6-chloro-5-(1-(3,5-dichloropyridin-4-yl)ethoxy)-3-(6-(6-(methylsulfonyl)-2,6-diazaspiro[3.3]heptan-2-yl)pyridin-3-yl)-1H-indazole]
Kd (FGFR1): 1 to 20 nM | Kd (FGFR2): 1 to 20 nM | Kd (FGFR3): 1 to 20 nM | Kd (FGFR3 (V555M)): 1 to 20 nM | Kd (FGFR4): 1 to 20 nM

COc1cc2[nH]nc(-c3ccc(N4CCCC4)nc3)c2cc1O[C@H](C)c1c(Cl)cnc(C)c1Cl [Example 220, 5-[(1R)-1-(3,5-dichloro-2-methyl-4-pyridyl)ethoxy]-6-methoxy-3-(6-pyrrolidin-1-yl-3-pyridyl)-1H-indazole]
Kd (FGFR1): 20 to 100 nM | Kd (FGFR2): 20 to 100 nM | Kd (FGFR3): 1 to 20 nM | Kd (FGFR3 (V555M)): 1 to 20 nM | Kd (FGFR4): 1 to 20 nM

COc1cc2[nH]nc(-c3cnc(N4CC[C@H]4C)c(S(C)(=O)=O)c3)c2cc1O[C@H](C)c1c(Cl)cncc1Cl [Example 372, 5-((R)-1-(3,5-dichloropyridin-4-yl)ethoxy)-6-methoxy-3-(6-((R)-2-methylazetidin-1-yl)-5-(methylsulfonyl)pyridin-3-yl)-1H-indazole]
Kd (FGFR1): 100 to 300 nM | Kd (FGFR2): 100 to 300 nM | Kd (FGFR3): 20 to 100 nM | Kd (FGFR3 (V555M)): 1 to 20 nM | Kd (FGFR4): 1 to 20 nM

C[C@@H](Oc1ccc2[nH]nc(-c3ccc(N4CC5(CN(CC(F)F)C5)C4)nc3)c2c1)c1c(Cl)cncc1Cl [Example 230, (R)-5-(1-(3,5-dichloropyridin-4-yl)ethoxy)-3-(6-(6-(2,2-difluoroethyl)-2,6-diazaspiro[3.3]heptan-2-yl)pyridin-3-yl)-1H-indazole]
Kd (FGFR1): 1 to 20 nM | Kd (FGFR2): 1 to 20 nM | Kd (FGFR3): 1 to 20 nM | Kd (FGFR3 (V555M)): 1 to 20 nM | Kd (FGFR4): 1 to 20 nM

COc1cc2[nH]nc(-c3cnc(N4CC[C@H]4C)c(F)c3)c2cc1O[C@H](C)c1c(Cl)cncc1Cl [Example 267, 5-((R)-1-(3,5-dichloropyridin-4-yl)ethoxy)-3-(5-fluoro-6-((R)-2-methylazetidin-1-yl)pyridin-3-yl)-6-methoxy-1H-indazole]
Kd (FGFR1): 20 to 100 nM | Kd (FGFR2): 20 to 100 nM | Kd (FGFR3): 1 to 20 nM | Kd (FGFR3 (V555M)): 1 to 20 nM | Kd (FGFR4): 1 to 20 nM

COC1(C)CN(c2ccc(-c3n[nH]c4ccc(O[C@H](C)c5c(Cl)cnc(C)c5Cl)cc34)cn2)C1 [Example 210, 5-[(1R)-1-(3,5-dichloro-2-methyl-4-pyridyl)ethoxy]-3-[6-(3-methoxy-3-methyl-azetidin-1-yl)-3-pyridyl]-1H-indazole]
Kd (FGFR1): 20 to 100 nM | Kd (FGFR2): 1 to 20 nM | Kd (FGFR3): 1 to 20 nM | Kd (FGFR3 (V555M)): 1 to 20 nM | Kd (FGFR4): 1 to 20 nM

COc1cc2[nH]nc(-c3cnc(N4CC5CC(C4)N5CC(C)(C)O)c(C)c3)c2cc1O[C@H](C)c1c(C)cnnc1C [Example 214, 1-(3-(5-(5-((R)-1-(3,5-dimethylpyridazin-4-yl)ethoxy)-6-methoxy-1H-indazol-3-yl)-3-methylpyridin-2-yl)-3,6-diazabicyclo[3.1.1]heptan-6-yl)-2-methylpropan-2-ol]
Kd (FGFR1): 1 to 20 nM | Kd (FGFR2): 1 to 20 nM | Kd (FGFR3): 1 to 20 nM | Kd (FGFR3 (V555M)): 1 to 20 nM | Kd (FGFR4): 1 to 20 nM

COc1cc2[nH]nc(-c3ccc(N4CCC4)nc3)c2cc1O[C@H](C)c1c(C)cnnc1C [Example 310, (R)-3-(6-(azetidin-1-yl)pyridin-3-yl)-5-(1-(3,5-dimethylpyridazin-4-yl)ethoxy)-6-methoxy-1H-indazole]
Kd (FGFR1): 1 to 20 nM | Kd (FGFR2): 1 to 20 nM | Kd (FGFR3): 1 to 20 nM | Kd (FGFR3 (V555M)): 1 to 20 nM | Kd (FGFR4): 1 to 20 nM
